From US12168639B2 (priority 2013, dated 2024) come the findings set out here.

The structures appear in SMILES notation.

For data set [1], the system named is Isolated mitochondria from brain. Type of data set: cell-based, rat.
For data set [2], the system named is rats. Particulars: rat, in vivo.
Data set [3] has as its system whole-cell brain preparations. Type of data set: cell-based.
Data set [4] concerns Isolated mitochondria from liver. Type of data set: cell-based, rat.
The test system of data set [5] is rats. To be noted: rat, in vivo. This is another data set of the same source.
For data set [6] the following is noted: rat, in vivo.
Data set [7] relates to rats fed a high-fat diet and sucrose supplemented (5%) drinking water. To be noted: rat, in vivo.

As to `O=[N+]([O-])c1ccc(O)c([N+](=O)[O-])c1` [DNP, 2,4-dinitrophenol], in data set [1], the “mitochondrial uncoupling (oxygen consumption)” value was “uncoupled both tissues”. Also, in data set [2], the “lowest dose where systemic toxicities may be observed” value is 25 mg/kg; the “mortality acutely after IP injection” value is “rapid dose-dependent mortality”; the “rectal temperature after IP injection” value is “large, dose-dependent increase”. Moreover, in data set [2] (ip), the “doses causing increase in rectal temperatures and mortality” value was “above 10 mg/kg”. In addition, in data set [3], the uncoupling result is “neither DNP nor DNPME was found to uncouple”. Also, in data set [4], the “mitochondrial uncoupling (oxygen consumption)” value is reported as “uncoupled both tissues”. For the same compound, in data set [5], the “ratio of effective to toxic dose” value was determined as 0.2 and the “toxic threshold of chronic treatment” value worked out at 1 mg/kg. In data set [6], the “peak DNP liver concentrations” value was about 60 µM, the “peak plasma DNP concentration” value was about 120 µM, the “peak plasma DNP concentrations” value is about 380 µM and the “time of peak plasma concentrations of DNP after injection” value stood at 1 h. For the same compound, the “lowest dose effective at lowering liver TAG” value in data set [7] is on record as 5 mg/kg.
